{"source": "patent US11572590B2", "about": "“Methods for evaluating tumor cell spheroids using 3D microfluidic cell culture device” (Dana-Farber Cancer Institute, Inc., priority 2017, dated 2023)", "assay_in_all_cases": "SelectScreen Kinase Profiling, single point inhibition and IC50 for off-target kinases", "type_in_all_cases": "biochemical", "key": {"off-target kinases [1]": {"biological_target": "T1, off-target kinases (Homo sapiens, UniProt O94768)", "T1 sequence (O94768 1-372)": "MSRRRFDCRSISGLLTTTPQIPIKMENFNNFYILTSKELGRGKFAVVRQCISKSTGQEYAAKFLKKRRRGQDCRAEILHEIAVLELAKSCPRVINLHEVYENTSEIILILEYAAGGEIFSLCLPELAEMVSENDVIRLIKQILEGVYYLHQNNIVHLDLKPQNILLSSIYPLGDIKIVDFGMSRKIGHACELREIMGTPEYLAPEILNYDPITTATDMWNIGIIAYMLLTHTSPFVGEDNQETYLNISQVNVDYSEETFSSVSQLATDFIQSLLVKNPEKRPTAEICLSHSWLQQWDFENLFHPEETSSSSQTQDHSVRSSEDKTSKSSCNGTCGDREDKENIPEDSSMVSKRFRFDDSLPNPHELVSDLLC", "settings": "STK17B (DRAK2), LanthaScreen Binding"}, "off-target kinases [2]": {"biological_target": "off-target kinases (Homo sapiens, UniProt P00533, L858R)", "sequence (P00533 25-1210 L858R)": "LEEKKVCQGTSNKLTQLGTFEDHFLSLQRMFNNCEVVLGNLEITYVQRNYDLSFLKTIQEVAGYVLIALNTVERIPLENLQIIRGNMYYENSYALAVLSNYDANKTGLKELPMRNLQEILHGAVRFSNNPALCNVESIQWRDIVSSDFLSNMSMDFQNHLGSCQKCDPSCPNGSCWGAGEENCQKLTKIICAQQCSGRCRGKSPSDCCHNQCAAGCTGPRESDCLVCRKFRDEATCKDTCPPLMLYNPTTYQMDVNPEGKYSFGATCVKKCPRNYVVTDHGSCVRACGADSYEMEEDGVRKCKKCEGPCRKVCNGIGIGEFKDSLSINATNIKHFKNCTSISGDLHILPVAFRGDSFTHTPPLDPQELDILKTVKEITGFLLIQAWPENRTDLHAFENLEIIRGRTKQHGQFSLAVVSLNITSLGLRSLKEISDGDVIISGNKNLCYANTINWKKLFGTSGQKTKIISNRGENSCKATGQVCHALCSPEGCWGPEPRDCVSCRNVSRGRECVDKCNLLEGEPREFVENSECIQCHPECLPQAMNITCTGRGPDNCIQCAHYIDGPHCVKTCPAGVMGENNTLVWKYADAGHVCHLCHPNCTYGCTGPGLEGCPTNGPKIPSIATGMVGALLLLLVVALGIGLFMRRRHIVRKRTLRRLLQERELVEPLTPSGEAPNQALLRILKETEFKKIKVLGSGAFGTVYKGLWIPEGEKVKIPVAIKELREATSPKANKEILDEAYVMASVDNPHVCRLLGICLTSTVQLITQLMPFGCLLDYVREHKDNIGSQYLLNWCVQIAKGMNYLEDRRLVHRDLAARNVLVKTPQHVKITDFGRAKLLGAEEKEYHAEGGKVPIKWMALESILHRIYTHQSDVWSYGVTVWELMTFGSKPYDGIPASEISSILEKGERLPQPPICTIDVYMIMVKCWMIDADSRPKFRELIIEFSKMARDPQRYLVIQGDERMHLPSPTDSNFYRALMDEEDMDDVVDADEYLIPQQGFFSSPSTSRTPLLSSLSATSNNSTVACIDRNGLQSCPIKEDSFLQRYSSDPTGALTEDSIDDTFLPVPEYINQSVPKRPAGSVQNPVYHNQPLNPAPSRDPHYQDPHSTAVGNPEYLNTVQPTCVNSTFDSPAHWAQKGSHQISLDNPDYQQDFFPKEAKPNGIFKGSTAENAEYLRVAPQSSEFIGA", "settings": "EGFR (ErbB1) L858R (mutant), ZLYTE, ATP Km app"}, "off-target kinases [3]": {"biological_target": "off-target kinases (Homo sapiens, UniProt P24723)", "sequence (P24723 whole entry)": "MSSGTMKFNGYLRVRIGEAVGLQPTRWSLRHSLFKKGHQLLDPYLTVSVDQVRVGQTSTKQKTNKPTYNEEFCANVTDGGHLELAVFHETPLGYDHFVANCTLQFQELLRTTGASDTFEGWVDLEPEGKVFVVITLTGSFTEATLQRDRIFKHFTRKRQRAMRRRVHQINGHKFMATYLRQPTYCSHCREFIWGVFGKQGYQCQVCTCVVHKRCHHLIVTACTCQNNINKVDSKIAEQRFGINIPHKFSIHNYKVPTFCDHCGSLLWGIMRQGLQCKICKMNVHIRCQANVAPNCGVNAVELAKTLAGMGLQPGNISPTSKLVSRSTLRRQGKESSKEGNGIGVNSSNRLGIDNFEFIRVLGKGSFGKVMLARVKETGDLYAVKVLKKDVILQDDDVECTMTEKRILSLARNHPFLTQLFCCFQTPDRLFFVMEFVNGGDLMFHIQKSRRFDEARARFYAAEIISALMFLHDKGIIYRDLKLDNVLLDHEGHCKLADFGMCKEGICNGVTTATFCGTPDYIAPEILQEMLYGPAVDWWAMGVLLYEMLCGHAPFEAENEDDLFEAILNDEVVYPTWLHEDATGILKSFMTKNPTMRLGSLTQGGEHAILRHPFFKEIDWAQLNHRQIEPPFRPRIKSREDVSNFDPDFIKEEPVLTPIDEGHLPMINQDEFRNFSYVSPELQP", "settings": "PRKCH (PKC eta), ZLYTE, ATP Km app"}, "off-target kinases [4]": {"biological_target": "T2, off-target kinases (Homo sapiens, UniProt P46734)", "T2 sequence (P46734 1-347)": "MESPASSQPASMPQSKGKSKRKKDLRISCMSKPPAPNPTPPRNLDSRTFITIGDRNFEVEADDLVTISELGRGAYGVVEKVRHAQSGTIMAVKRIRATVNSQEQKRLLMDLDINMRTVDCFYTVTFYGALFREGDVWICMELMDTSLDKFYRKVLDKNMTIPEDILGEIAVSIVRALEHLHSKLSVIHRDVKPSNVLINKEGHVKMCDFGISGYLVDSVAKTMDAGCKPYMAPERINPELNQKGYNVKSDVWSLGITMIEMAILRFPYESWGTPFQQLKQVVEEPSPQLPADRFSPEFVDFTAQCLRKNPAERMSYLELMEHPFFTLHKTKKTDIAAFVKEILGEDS", "settings": "MAP2K3 (MEK3), LanthaScreen Binding"}, "off-target kinases [5]": {"biological_target": "off-target kinases (Homo sapiens, UniProt Q8NEB9)", "sequence (Q8NEB9 whole entry)": "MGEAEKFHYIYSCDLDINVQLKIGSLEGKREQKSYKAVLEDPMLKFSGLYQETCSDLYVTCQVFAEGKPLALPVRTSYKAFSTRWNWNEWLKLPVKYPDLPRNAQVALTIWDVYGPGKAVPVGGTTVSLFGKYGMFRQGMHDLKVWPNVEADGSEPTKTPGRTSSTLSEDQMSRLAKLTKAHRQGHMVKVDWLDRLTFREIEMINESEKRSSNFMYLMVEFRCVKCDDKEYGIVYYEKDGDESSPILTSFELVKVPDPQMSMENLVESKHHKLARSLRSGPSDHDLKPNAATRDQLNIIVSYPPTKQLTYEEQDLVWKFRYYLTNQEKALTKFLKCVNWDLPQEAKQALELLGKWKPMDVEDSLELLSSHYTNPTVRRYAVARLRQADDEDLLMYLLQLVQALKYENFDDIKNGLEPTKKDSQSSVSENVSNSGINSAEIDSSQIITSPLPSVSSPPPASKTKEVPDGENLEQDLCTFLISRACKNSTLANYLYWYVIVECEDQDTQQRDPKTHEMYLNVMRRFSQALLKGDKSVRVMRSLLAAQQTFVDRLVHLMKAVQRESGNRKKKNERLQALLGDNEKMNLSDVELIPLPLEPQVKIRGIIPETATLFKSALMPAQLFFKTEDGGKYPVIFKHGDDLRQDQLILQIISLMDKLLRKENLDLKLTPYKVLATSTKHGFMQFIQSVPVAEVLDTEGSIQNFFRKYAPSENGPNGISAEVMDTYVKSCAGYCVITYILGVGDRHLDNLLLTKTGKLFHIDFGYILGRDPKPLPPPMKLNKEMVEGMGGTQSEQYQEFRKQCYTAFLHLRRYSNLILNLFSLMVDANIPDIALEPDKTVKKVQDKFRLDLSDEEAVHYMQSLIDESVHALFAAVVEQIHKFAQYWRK", "settings": "PIK3C3 (hVPS34); Cmpd1 1000 μM; ATP Km app; Adapta"}, "off-target kinases [6]": {"biological_target": "T3, off-target kinases (Homo sapiens, UniProt Q9NR20)", "T3 sequence (Q9NR20 1-520)": "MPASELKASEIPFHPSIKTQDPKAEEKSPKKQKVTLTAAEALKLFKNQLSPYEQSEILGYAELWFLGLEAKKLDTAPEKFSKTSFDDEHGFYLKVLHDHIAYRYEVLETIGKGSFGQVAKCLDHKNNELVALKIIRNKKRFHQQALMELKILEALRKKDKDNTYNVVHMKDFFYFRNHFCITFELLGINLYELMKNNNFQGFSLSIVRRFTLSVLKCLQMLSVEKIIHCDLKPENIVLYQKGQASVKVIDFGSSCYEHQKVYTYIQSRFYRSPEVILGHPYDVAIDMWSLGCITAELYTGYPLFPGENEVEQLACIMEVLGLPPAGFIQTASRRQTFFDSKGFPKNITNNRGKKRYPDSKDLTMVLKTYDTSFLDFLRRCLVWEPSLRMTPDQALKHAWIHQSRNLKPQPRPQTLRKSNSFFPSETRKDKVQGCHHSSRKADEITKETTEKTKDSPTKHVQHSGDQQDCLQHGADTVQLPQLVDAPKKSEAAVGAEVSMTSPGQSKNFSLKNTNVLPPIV"}}, "note": "Where two headings read alike, the source gives them in different places."}
{"molecule": "N#Cc1cc(-c2ncnc(Nc3ccc(N4CCN(C5COC5)CC4)cc3)n2)ccc1OC1CCOCC1", "note": "[Compound 1, 5-(4-((4-(4-(oxetan-3-yl)piperazin-1-yl)phenyl)amino)-1,3,5-triazin-2-yl)-2-((tetrahydro-2H-pyran-4-yl)oxy)benzonitrile]", "values": [{"measurement": "inhibition", "setting": "off-target kinases [1]; read-out: % Inhibition 1", "result": 94, "unit": "%"}, {"measurement": "inhibition", "setting": "off-target kinases [1]; read-out: % Inhibition 2", "result": 84, "unit": "%"}, {"measurement": "inhibition", "setting": "off-target kinases [1]; read-out: % Inhibition Avg", "result": 89, "unit": "%"}, {"measurement": "inhibition", "setting": "off-target kinases [2]; read-out: % Inhibition 1", "result": 6, "unit": "%"}, {"measurement": "inhibition", "setting": "off-target kinases [2]; read-out: % Inhibition 2", "result": 3, "unit": "%"}, {"measurement": "inhibition", "setting": "off-target kinases [2]; read-out: % Inhibition Avg", "result": 4, "unit": "%"}, {"measurement": "inhibition", "setting": "off-target kinases [3]; read-out: % Inhibition 1", "result": 12, "unit": "%"}, {"measurement": "inhibition", "setting": "off-target kinases [3]; read-out: % Inhibition 2", "result": 8, "unit": "%"}, {"measurement": "inhibition", "setting": "off-target kinases [3]; read-out: % Inhibition Avg", "result": 10, "unit": "%"}, {"measurement": "inhibition", "setting": "off-target kinases [4]; read-out: % Inhibition 1", "result": 5, "unit": "%"}, {"measurement": "inhibition", "setting": "off-target kinases [4]; read-out: % Inhibition 2", "result": 8, "unit": "%"}, {"measurement": "inhibition", "setting": "off-target kinases [4]; read-out: % Inhibition Avg", "result": 7, "unit": "%"}, {"measurement": "% Inhibition 1", "setting": "off-target kinases [5]", "result": "−5", "unit": "%"}, {"measurement": "% Inhibition 2", "setting": "off-target kinases [5]", "result": "−9", "unit": "%"}, {"measurement": "% Inhibition Avg", "setting": "off-target kinases [5]", "result": "−7", "unit": "%"}, {"measurement": "inhibition", "setting": "off-target kinases [6]; read-out: % Inhibition 1", "result": -2, "unit": "%"}, {"measurement": "inhibition", "setting": "off-target kinases [6]; read-out: % Inhibition 2", "result": 0, "unit": "%"}, {"measurement": "inhibition", "setting": "off-target kinases [6]; read-out: % Inhibition Avg", "result": -1, "unit": "%"}]}
